Measured values from patent US20250195530A1, “POLQ INHIBITORS” (ASTRAZENECA AB, priority 2022, published 2025).
Read-outs that look alike come from different tables or passages of the source.

How the values were obtained:
[1] = system: DLD-1 cells; assay: Inhibition of proliferation, DLD-1 BRCA2 wt control (Cell Titre Glo 3D); assay type: cell-based; settings: for IC50: Homo sapiens, read-out: POLQ PD Prolif Lumin (converted); for POLQ PD Prolif Lumin: DLD-1 BRCA2 wt control proliferation
Outline: (§1)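 Read-out: CellTiter-Glo 3D luminescence, day 7 for wt DLD-1, day 12 for BRCA2−/−, about 8-9 population doublings each. Seeding 1,500 or 3,000 cells/mL respectively. Dose range 10 μM–0.51 nM, 3-fold, 10 points, with re-dosing on day 6. IC50 from curve fit.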

[2] = system: DLD-1 BRCA2−/− cells; assay: Homologous recombination synthetic lethal inhibition of proliferation, DLD-1 BRCA2-/- (Cell Titre Glo 3D); assay type: cell-based; settings: for IC50: Homo sapiens, read-out: POLQ PD Prolif Lumin (converted); for POLQ PD Prolif Lumin: DLD-1 BRCA2-/- proliferation
Outline: as §1

[3] = DLD-1, DLD-1 BRCA2 wt control proliferation, column head only partly shown
[4] = DLD-1, DLD-1 BRCA2-/- proliferation, column head only partly shown
[5] = DLD-1, second proliferation column (c6), taken as DLD-1 BRCA2 wt
[6] = DLD-1, first proliferation column (c5), taken as DLD-1 BRCA2-/-

Structure (SMILES) | IC50 [1, 3] [nM] | IC50 [2, 4] [nM] | IC50 [1, 5] [nM] | IC50 [2, 6] [nM] | other results
Cc1ccnc(Cn2c(-c3cccc(OCCN(C)C)c3Cl)nc3c(OC4(C)CC4)ncnc32)c1 [Example T237, 2-(2-chloro-3-(6-(1-methylcyclopropoxy)-9-((4-methylpyridin-2-yl)methyl)-9H-purin-8-yl)phenoxy)-N,N-dimethylethan-1-amine] | > 10000 | 50.1 | – | – | –
CNCCCOc1ccc(-c2nc3c(OC4(C)CC4)ncnc3n2Cc2cc(C)ccn2)c(Cl)c1 [Example T238, 3-(3-chloro-4-(6-(1-methylcyclopropoxy)-9-((4-methylpyridin-2-yl)methyl)-9H-purin-8-yl)phenoxy)-N-methylpropan-1-amine] | > 10000 | 501 | – | – | –
Cc1cnc(Cn2c(-c3ccc(OCCN4CCCC4)cc3Cl)nc3c(OC4(C)CC4)ncnc32)s1 [Example T239, 2-((8-(2-chloro-4-(2-(pyrrolidin-1-yl)ethoxy)phenyl)-6-(1-methylcyclopropoxy)-9H-purin-9-yl)methyl)-5-methylthiazole] | > 10000 | 251 | – | – | –
Cc1cnc(Cn2c(-c3ccc(OC[C@H]4CCCN4C)cc3Cl)nc3c(OC4(C)CC4)ncnc32)s1 [Example T240, (R)-2-((8-(2-chloro-4-((1-methylpyrrolidin-2-yl)methoxy)phenyl)-6-(1-methylcyclopropoxy)-9H-purin-9-yl)methyl)-5-methylthiazole] | > 10000 | 316 | – | – | –
Cc1cnc(Cn2c(-c3ccc(OC4CCN(C)CC4)cc3Cl)nc3c(OC4(C)CC4)ncnc32)s1 [Example T241, 2-((8-(2-chloro-4-((1-methylpiperidin-4-yl)oxy)phenyl)-6-(1-methylcyclopropoxy)-9H-purin-9-yl)methyl)-5-methylthiazole] | > 10000 | 316 | – | – | –
Cc1cnc(Cn2c(-c3ccc(OCCCN4CC(O)C4)cc3Cl)nc3c(OC4(C)CC4)ncnc32)s1 [Example T244, 1-(3-(3-chloro-4-(6-(1-methylcyclopropoxy)-9-((5-methylthiazol-2-yl)methyl)-9H-purin-8-yl)phenoxy)propyl)azetidin-3-ol] | > 7940 | 501 | – | – | –
Cc1cnc(Cn2c(-c3cccc(OCCCN4CC(O)C4)c3Cl)nc3c(OC4(C)CC4)ncnc32)s1 [Example T246, 1-(3-(2-chloro-3-(6-(1-methylcyclopropoxy)-9-((5-methylthiazol-2-yl)methyl)-9H-purin-8-yl)phenoxy)propyl)azetidin-3-ol] | > 10000 | 794 | – | – | –
Cc1csc(Cn2c(-c3ccc(OCCN4CCNCC4)cc3Cl)nc3c(OC4(C)CC4)ncnc32)n1 [Example T248, 2-((8-(2-chloro-4-(2-(piperazin-1-yl)ethoxy)phenyl)-6-(1-methylcyclopropoxy)-9H-purin-9-yl)methyl)-4-methylthiazole] | > 10000 | 2000 | – | – | –
Cc1ncc(Cn2c(-c3ccc(OCCN4CCNCC4)cc3Cl)nc3c(OC4(C)CC4)ncnc32)s1 [Example T249, 5-((8-(2-chloro-4-(2-(piperazin-1-yl)ethoxy)phenyl)-6-(1-methylcyclopropoxy)-9H-purin-9-yl)methyl)-2-methylthiazole] | > 10000 | 3980 | – | – | –
CC1(Oc2ncnc3c2nc(-c2ccc(OCc4nc(C(=O)O)cs4)cc2Cl)n3Cc2cccc(Cl)c2)CC1 [Example T250, 2-((3-chloro-4-(9-(3-chlorobenzyl)-6-(1-methylcyclopropoxy)-9H-purin-8-yl)phenoxy)methyl)thiazole-4-carboxylic acid] | > 10000 | 3160 | – | – | –
CC1(Oc2ncnc3c2nc(-c2ccc(O[C@H]4C[C@H](C(=O)O)C4)cc2Cl)n3Cc2cccc(Cl)c2)CC1 [Example T253, (1r,3r)-3-(3-chloro-4-(9-(3-chlorobenzyl)-6-(1-methylcyclopropoxy)-9H-purin-8-yl)phenoxy)cyclobutane-1-carboxylic acid] | – | – | – | – | POLQ PD Prolif Lumin ([1]; column head only partly shown): <5.0; POLQ PD Prolif Lumin ([2]; column head only partly shown): 6.5
CC1(Oc2ncnc3c2nc(-c2ccc(O[C@H]4C[C@@H](C(=O)O)C4)cc2Cl)n3Cc2cccc(Cl)c2)CC1 [Example T254, (1s,3s)-3-(3-chloro-4-(9-(3-chlorobenzyl)-6-(1-methylcyclopropoxy)-9H-purin-8-yl)phenoxy)cyclobutane-1-carboxylic acid] | – | – | – | – | POLQ PD Prolif Lumin ([1]; column head only partly shown): <5.0; POLQ PD Prolif Lumin ([2]; column head only partly shown): 6.8
CC1(Oc2ncnc3c2nc(-c2ccc(OCCN4CC(O)C4)cc2Cl)n3Cc2cc(C(F)(F)F)ccn2)CC1 [Example T284, 1-(2-(3-chloro-4-(6-(1-methylcyclopropoxy)-9-((4-(trifluoromethyl)pyridin-2-yl)methyl)-9H-purin-8-yl)phenoxy)ethyl)azetidin-3-ol] | > 10000 | 501 | – | – | –
CC(C)(C)Oc1cccc2c1nc(-c1ccc(OCCC(=O)O)cc1Cl)n2Cc1cccc(Cl)c1 [Example T288, 3-(4-(4-(tert-butoxy)-1-(3-chlorobenzyl)-1H-benzo[d]imidazol-2-yl)-3-chlorophenoxy)propanoic acid] | > 10000 | 2000 | – | – | –
CC1(Oc2ncnc3c2nc(-c2cccc(OCCCCC(=O)O)c2Cl)n3Cc2cccc(Cl)c2)CC1 [Example T292, 5-(2-chloro-3-(9-(3-chlorobenzyl)-6-(1-methylcyclopropoxy)-9H-purin-8-yl)phenoxy)pentanoic acid] | > 10000 | 31.6 | – | – | –
C[C@@H](CCOc1cccc(-c2nc3c(OC4(C)CC4)ncnc3n2Cc2cccc(Cl)c2)c1Cl)C(=O)O [Example T296, (S)-4-(2-chloro-3-(9-(3-chlorobenzyl)-6-(1-methylcyclopropoxy)-9H-purin-8-yl)phenoxy)-2-methylbutanoic acid] | > 10000 | 25.1 | – | – | –
CC1(Oc2ncnc3c2nc(-c2ccc(OCCCOCC(=O)O)cc2Cl)n3Cc2cccc(Cl)c2)CC1 [Example T302, 2-(3-(3-chloro-4-(9-(3-chlorobenzyl)-6-(1-methylcyclopropoxy)-9H-purin-8-yl)phenoxy)propoxy)acetic acid] | – | – | > 10000 | 316 | –
CC1(Oc2ncnc3c2nc(-c2cccc(OCCCOCC(=O)O)c2Cl)n3Cc2cccc(Cl)c2)CC1 [Example T304, 2-(3-(2-chloro-3-(9-(3-chlorobenzyl)-6-(1-methylcyclopropoxy)-9H-purin-8-yl)phenoxy)propoxy)acetic acid] | – | – | > 10000 | 100 | –
CC1(Oc2ncnc3c2nc(-c2ccc(OCCN4CC(O)C4)cc2Cl)n3Cc2cc(C(F)F)ccn2)CC1 [Example T307, 1-(2-(3-chloro-4-(9-((4-(difluoromethyl)pyridin-2-yl)methyl)-6-(1-methylcyclopropoxy)-9H-purin-8-yl)phenoxy)ethyl)azetidin-3-ol] | – | – | > 10000 | 1580 | –
Cc1ccnc(Cn2c(-c3ccc(CC(=O)N4CCC4)cc3Cl)nc3c(OC4(C)CC4)ncnc32)c1 [Example T308, 1-(azetidin-1-yl)-2-(3-chloro-4-(6-(1-methylcyclopropoxy)-9-((4-methylpyridin-2-yl)methyl)-9H-purin-8-yl)phenyl)ethan-1-one] | – | – | > 10000 | 316 | –
Cc1ccnc(Cn2c(-c3ccc(CC(=O)NC4CC4)cc3Cl)nc3c(OC4(C)CC4)ncnc32)c1 [Example T310, 2-(3-chloro-4-(6-(1-methylcyclopropoxy)-9-((4-methylpyridin-2-yl)methyl)-9H-purin-8-yl)phenyl)-N-cyclopropylacetamide] | – | – | > 10000 | 398 | –
Cc1ccnc(Cn2c(-c3ccc(C(=O)N4CC[C@@H](O)C4)cc3Cl)nc3c(OC4(C)CC4)ncnc32)c1 [Example T311, (R)-(3-chloro-4-(6-(1-methylcyclopropoxy)-9-((4-methylpyridin-2-yl)methyl)-9H-purin-8-yl)phenyl)(3-hydroxypyrrolidin-1-yl)methanone] | – | – | > 10000 | 3980 | –
CC1(Oc2ncnc3c2nc(-c2ccc(OCCCC(=O)NS(C)(=O)=O)cc2Cl)n3Cc2cccc(Cl)c2)CC1 [Example T326, 4-(3-chloro-4-(9-(3-chlorobenzyl)-6-(1-methylcyclopropoxy)-9H-purin-8-yl)phenoxy)-N-(methylsulfonyl)butanamide] | – | – | > 10000 | 631 | –
CN(C)CCCOc1ccc(-c2nc3c(OC4(C)CC4)ncnc3n2Cc2cc(C(F)(F)F)ccn2)c(Cl)c1 [Example T329, 3-(3-chloro-4-(6-(1-methylcyclopropoxy)-9-((4-(trifluoromethyl)pyridin-2-yl)methyl)-9H-purin-8-yl)phenoxy)-N,N-dimethylpropan-1-amine] | – | – | 10000 | 126 | –
Cc1ccnc(Cn2c(-c3ccc(OC4CCS(=O)(=O)CC4)cc3Cl)nc3c(OC4(C)CC4)ncnc32)c1 [Example T335, 4-(3-chloro-4-(6-(1-methylcyclopropoxy)-9-((4-methylpyridin-2-yl)methyl)-9H-purin-8-yl)phenoxy)tetrahydro-2H-thiopyran 1,1-dioxide] | – | – | > 10000 | 251 | –
Cc1ccnc(Cn2c(-c3ccc(N4C[C@H]5C[C@@H]4CN5)cc3Cl)nc3c(OC4(C)CC4)ncnc32)c1 [Example T336, 8-(4-((1R,4R)-2,5-diazabicyclo[2.2.1]heptan-2-yl)-2-chlorophenyl)-6-(1-methylcyclopropoxy)-9-((4-methylpyridin-2-yl)methyl)-9H-purine] | – | – | > 10000 | 1580 | –
Cc1ccnc(Cn2c(-c3ccc(C(=O)N4CCNCC4)cc3Cl)nc3c(OC4(C)CC4)ncnc32)c1 [Example T337, (3-chloro-4-(6-(1-methylcyclopropoxy)-9-((4-methylpyridin-2-yl)methyl)-9H-purin-8-yl)phenyl)(piperazin-1-yl)methanone] | – | – | > 10000 | 5010 | –
